Test results: ChEMBL document CHEMBL1157821, “In vitro photodynamic therapy and quantitative structure-activity relationship studies with stable synthetic near-infrared-absorbing bacteriochlorin photosensitizers” (J Med Chem, 2010)

The compounds below were run on HeLa (assay: Photocytotoxicity against human HeLa cells assessed as survival-fraction per unit uptake measured as concentration in incubation medium necessary to produce cell uptake of 0.3 nmol per mg of protein at which survival fraction was determined after 24 hrs in presence of 10 J/cm2 light).
Format: functional

| SMILES | survival fraction |
| --- | --- |
| CC1(C)Cc2cc3[nH]c(cc4nc(cc5[nH]c(cc1n2)cc5-c1cc(OCCO)cc(OCCO)c1)CC4(C)C)cc3-c1cc(OCCO)cc(OCCO)c1 | 0.001 |
| CC1(C)Cc2cc3[nH]c(cc4nc(cc5[nH]c(cc1n2)cc5C#CC[N+](C)(C)C)CC4(C)C)cc3C#CC[N+](C)(C)C.[Cl-].[Cl-] | 0.6 |
| CC1(C)Cc2cc3[nH]c(cc4nc(cc5[nH]c(cc1n2)cc5C(=O)/C=C/c1cc(O)cc(O)c1)CC4(C)C)cc3C(=O)/C=C/c1cc(O)cc(O)c1 | 0.23 |
| CC1(C)Cc2cc3[nH]c(cc4nc(cc5[nH]c(cc1n2)cc5C(=O)NCCN)CC4(C)C)cc3C(=O)NCCN | 0.88 |
| CC1(C)Cc2cc3[nH]c(cc4nc(cc5[nH]c(cc1n2)cc5C(=O)O)CC4(C)C)cc3C(=O)O | 0.35 |
| CC1(C)Cc2cc3[nH]c(cc4nc(cc5[nH]c(cc1n2)cc5CN(CCO)CCO)CC4(C)C)cc3CN(CCO)CCO | 0.04 |
| COCCOCCOCCOCCNCc1cc(CNCCOCCOCCOCCOC)cc(-c2c3nc(cc4[nH]c(cc4-c4ccc(C)cc4)c(OC)c4nc(cc5[nH]c2cc5-c2ccc(C)cc2)C(C)(C)C4)C(C)(C)C3)c1 | 0.1 |
| CC1(C)Cc2cc3[nH]c(cc4nc(cc5[nH]c(cc1n2)cc5C(=O)N(CCN)CCN)CC4(C)C)cc3C(=O)N(CCN)CCN | 0.9 |
| CC1(C)Cc2cc3[nH]c(cc4nc(cc5[nH]c(cc1n2)cc5C(=O)N1CC[N+](C)(C)CC1)CC4(C)C)cc3C(=O)N1CC[N+](C)(C)CC1.[Cl-].[Cl-] | 1 |
| CC1(C)Cc2cc3[nH]c(cc4nc(cc5[nH]c(cc1n2)cc5-c1cc(O)cc(O)c1)CC4(C)C)cc3-c1cc(O)cc(O)c1 | 0.01 |
| COCCN(CCOC)C(=O)c1cc2cc3nc(cc4[nH]c(cc5nc(cc1[nH]2)CC5(C)C)cc4C(=O)N(CCOC)CCOC)CC3(C)C | 0.02 |
